# Source: patent US9594084B2, “Phosphorylation of histones and uses thereof” (H. LEE MOFFITT CANCER CENTER AND RESEARCH INSTITUTE, priority 2012, dated 2017)
# Tests used:
# [1] = target: T1, WEE1 (Homo sapiens, UniProt P30291); assay: In vitro kinase assay, purified WEE1 and H2B; assay type: biochemical; design: GST; purchased Invitrogen; conditions: MK1775 0.625 μM, 1 hour at 30° C.
# Method: FIG. 13A is an immunoblot showing lysates from synchronized MEFs immunoprecipitated with pTyr37-H2B antibodies followed by immunoblotting with pTyr37-H2B antibody (top panel) or H2B antibody (bottom panel). FIG. 13B is an immunoblot showing cell lysates 6.30 hours post-release from H1975 cells synchronized by double thymidine alone (first column) or with 0.31 μM (second column), 0.62 μM (third column) and 1.25 μM (fourth column) MK1775 WEE1 inhibitor that were immunoprecipitated with pTyr37-H2B antibodies followed by immunoblotting with pTyr37-H2B, H2B, pTyr15-Cdc2, or Cdc2 antibodies. FIG. 13C is an immunoblot showing lysates collected at 0 and 6.30 hours post-release from synchronized MEFs transfected with control (first two columns) or WEE1 (last two columns) siRNAs that were immunoprecipitated with pTyr37-H2B antibodies followed by immunoblotting with pTyr37-H2B (top panel), H2B (second panel), WEE1 (third panel), or PTyr15-Cdc2 (bottom panel) antibodies. FIG. 13D is an immunoblot showing equimolar amounts of purified WEE1 (last three columns) and H2B (first three columns) proteins incubated in the presence (third column) or absence of WEE1 inhibitor (MK1775, 0.625 μM) for 1 hour at 30° C. and immunoblotted with pTyr37-H2B (top panel), H2B (middle panel), and WEE1 (bottom panel) antibodies. […]
# [2] = target: T1, WEE1; assay: H4 Tyr88 peptide ELISA in vitro kinase assay with purified WEE1; assay type: biochemical; design: GST; purchased Invitrogen; conditions: read at 450 nm
# Method: Biotinylated unphosphorylated and Tyr88-phosphorylated H4 peptides were immobilized on streptavdin 96-well plates. […] ELISA was performed as described in text.
# WEE1 and Ack1 are two non-receptor tyrosine kinases or NRTKs that have known nuclear functions. To determine whether WEE1 and Ack1 can directly target H4 for Tyr88-phosphorylation, this study performed in vitro kinase assay. In brief, the Streptavidin coated 96-well plates (R&D systems) were incubated with biotinylated H4-derived peptide […] (SEQ ID NO: 64) for 1 hour. The plates were washed and the purified WEE1 or Ack1 were added in kinase buffer (20 mM HEPES, 150 mM NaCl, 0.5% Triton X-100, 10% Glycerol, phosphatase and protease inhibitors) containing ATP and MgCl2. After 2 hours of incubation, plates were washed with phosphate buffered saline containing 0.1% Tween 20 (PBST) and blocked in 3% BSA. The pY88-H4 antibodies (at 1:500 dilution) were added and incubated for 1 hour. Unbound antibodies were washed and HRP-conjugated anti-mouse secondary Antibodies (1:2000) were added. Magnitude of phosphorylation was detected using developer solution (OPD tablets, Sigma) and the plates were read at 450 nm. As a negative control, no kinase and no peptide reactions were used. The biotinylated phosphopeptide […]p[…] (SEQ ID NO: 65) was used as a positive control.
# [3] = tested on: 5-hmC levels; assay: Slot blot of genomic DNA with 5-hmC and 5-mC antibodies; assay type: cell-based
# Method: SBC12, T98G and HEK293 cells were treated with WEE1 inhibitor, MK1775 (0.6 μM, 24 hr). Blots were incubated with 5-hmC and 5-mC antibodies.
# Genomic DNA was isolated, blotted by slot blot, followed by immunoblotting with 5-hmC and 5-mC antibodies. […] 5-hmC containing plasmid DNA (Zymo research) was used as positive control.
# [4] = tested on: IDH2 gene transcription; assay: qRT-PCR of IDH2 in cancer cell lines; assay type: cell-based
# Description: (FIG. 42a-42e) RNA was isolated from cells treated with WEE1 inhibitor (or siRNA) followed by qRT-PCR using IDH2 and actin primers.
# Total RNA was isolated followed by qRT-PCR with IDH2 and actin specific primers. As control, U118 cell line was used which has low levels of WEE1 (unpublished data).
# T1 sequence (P30291 whole entry): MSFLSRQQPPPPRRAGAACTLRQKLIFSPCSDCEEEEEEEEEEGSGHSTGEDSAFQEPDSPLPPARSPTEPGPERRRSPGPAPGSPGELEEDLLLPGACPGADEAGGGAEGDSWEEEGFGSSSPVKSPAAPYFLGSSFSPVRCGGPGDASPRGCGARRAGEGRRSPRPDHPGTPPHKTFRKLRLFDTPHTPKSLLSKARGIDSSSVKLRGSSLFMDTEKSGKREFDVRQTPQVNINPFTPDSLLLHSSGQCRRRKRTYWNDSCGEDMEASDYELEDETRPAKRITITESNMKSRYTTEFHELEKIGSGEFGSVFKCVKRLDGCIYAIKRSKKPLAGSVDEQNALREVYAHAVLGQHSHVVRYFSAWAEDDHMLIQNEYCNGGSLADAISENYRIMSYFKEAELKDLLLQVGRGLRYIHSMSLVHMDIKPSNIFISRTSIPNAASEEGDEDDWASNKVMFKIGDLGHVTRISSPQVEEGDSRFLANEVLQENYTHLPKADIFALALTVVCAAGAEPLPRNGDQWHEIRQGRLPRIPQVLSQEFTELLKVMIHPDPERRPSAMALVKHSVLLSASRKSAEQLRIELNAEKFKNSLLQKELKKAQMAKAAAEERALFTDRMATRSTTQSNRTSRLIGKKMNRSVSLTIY
compound,measurement,setting,value
C=CCn1c(=O)c2cnc(Nc3ccc(N4CCN(C)CC4)cc3)nc2n1-c1cccc(C(C)(C)O)n1 [MK-1775],H2B pTyr37-phosphorylation by purified WEE1,[1],abrogated
same,H4 Tyr88-phosphorylation by WEE1,[2],significantly decreased
same,5-hmC levels,"[3]; HEK293 cells, 0.6 μM, 24 hr",remained unchanged
same,5-hmC levels,"[3]; SBC12 melanoma derived cell line, 0.6 μM, 24 hr",significant upregulation
same,5-hmC levels,"[3]; T98G GBM-derived cells, 0.6 μM, 24 hr",significant upregulation
same,5-mC levels,"[3]; immunoblotting with 5-mC antibodies, 0.6 μM, 24 hr",concomitant decrease
same,5-hmC levels,[3]; summary statement,restored
same,transcript levels of the IDH2 gene,"[4]; LNCaP (prostate), 1 uM, 24 hours",significant increase
same,transcript levels of the IDH2 gene,"[4]; U87 (GBM), 1 uM, 24 hours",significant increase
same,IDH2 mRNA,"[4]; U118 cell line (low levels of WEE1), 1 uM, 24 hours",not increased
same,transcript levels of the IDH2 gene,"[4]; WM1366 (melanoma), 1 uM, 24 hours",significant increase
same,IDH2 transcript levels,[4]; summary statement,increased
